Tests used:
Male SD rats = assay: Hypoglycemic action in rats (oral glucose tolerance test); type: in vivo; conditions: Rattus norvegicus, 0.5 h, male SD rats fasted overnight, glucose load 2 g/kg 60 min later, blood drawn 30 min after starting glucose loading, read-out: glucose level (% of control); for response vs control in vivo at 30 mg/kg: 30 mg/kg body weight oral; for response vs control in vivo at 50 mg/kg: 50 mg/kg body weight oral
Procedure: Hypoglycemic Action in Rats
Male SD rats (7 weeks of age, 5 per group) were fasted overnight and blood was drawn from the tail vein to measure the glucose level before administration of the test compound. Then the test compound (30 mg/kg body weight/10 mL (compounds of Examples 8, 16, 66, 68, 79, 94, 123) or 50 mg/kg body weight/10 mL (compounds of Examples 58, 70)) suspended in 0.5% methyl cellulose was orally administered to the rats using a gastric tube. Oral glucose tolerance test (2 g/kg body weight/10 mL) was started 60 min later. Blood was drawn at 30 min after starting the glucose loading, and glucose level was measured. The glucose level was measured using an automatic analyzer (HITACHI 7070).

[1] = system: pancreatic Langerhans' islet of rats; assay: Insulin secretion promoting action in pancreatic Langerhans' islet of rats; type: cell-based, rat; conditions: test compound 100 μmol/L, 7.5 mmol/L glucose, 1 hr incubation; insulin secretion amount relative to control group, amended by DNA amount
Procedure: Insulin Secretion Promoting Action in Pancreatic Langerhans' Islet of Rats
The pancreas of 8-week-old male SD rat was treated with collagenase and the isolated Langerhans' islet was preincubated for 1 hr in a medium (KRB) containing 2.8 mmol/L glucose in a 24 well incubation plate, which was followed by incubation for 1 hr in KRB containing the test compound (100 μmol/L, see Table 2) and 7.5 mmol/L glucose (control group was free of test compound). The medium was recovered and the amount of the secreted insulin was measured using a radioimmunoassay kit (trademark: SHIONORIA insulin kit (manufactured by Shionogi & Co., Ltd.)). The Langerhans' islet was lysed by ultrasonication and the DNA amount was measured, based on which the insulin level in the medium was amended. The insulin secretion amount of the test compound group is expressed in a value (%) relative to the control group and shown in Table 2.

| melting point [°C] | Structure (SMILES) | response vs control in vivo at 30 mg/kg (Male SD rats) [%] | insulin secretion promoting action (%) [1] [%] | response vs control in vivo at 50 mg/kg (Male SD rats) [%] |
| --- | --- | --- | --- | --- |
|  | O=C(O)CCc1cnoc1-c1ccc(Cl)cc1 [Example 8, 3-[5-(4-chlorophenyl)-4-isoxazolyl]propionic acid] | 85 | 256 |  |
|  | OCCCc1cnoc1-c1ccc(Cl)cc1 [Example 16, 3-[5-(4-chlorophenyl)-4-isoxazolyl]propan-1-ol] | 88 |  |  |
|  | OCCCc1cnoc1-c1ccc(F)cc1 [Example 58, 3-[5-(4-fluorophenyl)-4-isoxazolyl]propan-1-ol] |  |  | 85 |
| 138 to 139 | O=C(O)CCc1cnoc1-c1ccc(Cl)s1 [Example 64, 3-[5-(5-chloro-2-thienyl)-4-isoxazolyl]propionic acid] |  | 273 |  |
|  | OCCCc1cnoc1-c1ccc(Cl)s1 [Example 66, 3-[5-(5-chloro-2-thienyl)-4-isoxazolyl]propan-1-ol] | 80 |  |  |
|  | OCCCc1cnoc1-c1ccc(Cl)c(Cl)c1 [Example 68, 3-[5-(3,4-dichlorophenyl)-4-isoxazolyl]propan-1-ol] | 75 |  |  |
| 171 to 172 | O=C(O)CCc1cnoc1-c1ccc(Cl)c(Cl)c1 [Example 70, 3-[5-(3,4-dichlorophenyl)-4-isoxazolyl]propionic acid] |  | 235 | 88 |
| 102 to 103 | O=C(O)CCc1cnoc1-c1ccc(F)c(F)c1 [Example 77, 3-[5-(3,4-difluorophenyl)-4-isoxazolyl]propionic acid] |  | 201 |  |
|  | OCCCc1cnoc1-c1ccc(F)c(F)c1 [Example 79, 3-[5-(3,4-difluorophenyl)-4-isoxazolyl]propan-1-ol] | 77 |  |  |
| 118 to 119 | O=C(O)CCc1cnoc1-c1ccc(F)c(Cl)c1 [Example 92, 3-[5-(3-chloro-4-fluorophenyl)-4-isoxazolyl]propionic acid] |  | 156 |  |
|  | OCCCc1cnoc1-c1ccc(F)c(Cl)c1 [Example 94, 3-[5-(3-chloro-4-fluorophenyl)-4-isoxazolyl]propan-1-ol] | 81 |  |  |
| 142 to 143 | O=C(O)CCc1cnoc1-c1cc(Cl)c(Cl)s1 [Example 123, 3-[5-(4,5-dichloro-2-thienyl)-4-isoxazolyl]propionic acid] | 86 |  |  |
